Key:
[1] = Mold/mildew malodor coverage, panel sniff test with proprietary malodor model; set-up: species or system human; settings: compound 10% in solvent; 1 h equilibration in 8 oz jar; 15-18 panelists; scale 1 (No Coverage) to 5 (Excellent Coverage)
Method: (§1) It is known that the perspirative malodors of human body, particularly sweat, are associated with the production of several unpleasant smelling organic acids, particularly isovaleric acid (“IVA”). The commercial sample of this malodorous material (commercially available at Sigma-Aldrich Inc.) was thus used as a model compound to assess the effectiveness of sweat malodor counteractants. The mold/mildew malodor model was prepared based on applicant's proprietary formulations for assessing the effectiveness of mold/mildew malodor counteractants.
(§2) Two aluminum dishes were placed in an 8 oz glass jar. A malodor material was pipetted into one aluminum dish, and a compound of the present invention diluted in a solvent (10%) or a solvent alone control was pipetted into the other aluminum dish. The jar was then capped and the samples were allowed to equilibrate for one hour before the testing.
(§3) Test samples were presented in a blind and random order to 15-18 internal panelists (consisting of men/women with an age range of 25 to 55). However, different odor samples were arranged in an alternative order (for example, sweat, mold/mildew, sweat, mold/mildew, and etc.).
(§4) The panelists were instructed to take the steps of i) sniff jars containing only the malodor materials for familiarization prior to the testing; ii) uncap a jar; iii) place their noses at a distance of about 3-4 inches above the opening; iv) take short sniffs for 3 seconds; and v) provide a rank of the malodor coverage using an intensity scale of 1 to 5, where 1 represents “No Coverage”, 3 represents “Moderate Coverage”, and 5 represents “Excellent Coverage”. The means for each sample was then calculated.

[2] = Sweat malodor coverage, panel sniff test with isovaleric acid model; set-up: species or system human; settings: compound 10% in solvent; 1 h equilibration in 8 oz jar; 15-18 panelists; scale 1 (No Coverage) to 5 (Excellent Coverage)
Method: as §1, §2, §3, §4

Vapor pressure = type: physicochemical

Row | Vapor Pressure (Vapor pressure) [µg/L] | Structure (SMILES) | Mold/Mildew Malodor, mean rank of malodor coverage [1] | Sweat Malodor, mean rank of malodor coverage [2]
1 | 28652 | CC1=CCC2(C)CCC1C2 (stereo not drawn) [Structure I, 2,5-dimethyl-bicyclo[3.2.1]oct-2-ene] | 3.32 | 3.90
2 | 1091 | CC(=O)OC1CC2(C)CCC(C2)C1C (stereo not drawn) [Structure IV, acetic acid 1,4-dimethyl-bicyclo[3.2.1]oct-3-yl ester] | 2.96 | 3.09
3 | 406 | COC(=O)OC1CC2(C)CCC(C2)C1C (stereo not drawn) [Structure V, carbonic acid 1,4-dimethyl-bicyclo[3.2.1]oct-3-yl ester methyl ester] | 2.49 | 2.42

— patent US8415391B2, “3.2.1-bicyclo-octene and -octane compounds” (International Flavors & Fragrances Inc., priority 2010, dated 2013)
